Results published in patent US9688667B2, “Tazarotene with low dimer impurity for treating acne or psoriasis” (SUN PHARMACEUTICAL INDUSTRIES LIMITED, priority 2013, dated 2017).

Columns and labels:
[1] = system: ear of Sprague Dawley Rats; assay: Toxicity study: topical application of tazarotene spiked with dimer impurity on rat ears, ear thickness measurement; assay type: in vivo
Procedure: Inventor performed the toxicity study of tazarotene spiked with known dimer impurity by applying the fixed concentration a solution of tazarotene (0.1% w/v tazarotene) with variable concentrations of impurity (0-1500 ppm) on Sprague Dawley Rats as given in Table 1.
Each sample (100 μl) was applied topically once daily on the left and right ear of the animals (Sprague Dawley Rats) of the respective groups from day 0 to day 9. Animals were checked for recovery from day 10 to day 14. Ear thickness measurement was repeated on day 3, 7, 10, 12 and 14.

[2] = tazarotene gel, psoriasis, cited from earlier work

SMILES: CC1(C)CCSc2ccc(C#CC#Cc3ccc4c(c3)C(C)(C)CCS4)cc21 [dimer impurity, 4,4-dimethyl-6-[4-(4,4-dimethylthiochroman-6-yl)-buta-1,3-diynyl]-thiochroman]
- effect of level of dimer impurity on ear thickness and inflammation ([1]; dimer impurity 0-1500 ppm in tazarotene samples, topical application): dose dependent and significant increase
- toxicity of the dimer impurity ([1]; found during the animal studies): highly toxic

SMILES: CCOC(=O)c1ccc(C#Cc2ccc3c(c2)C(C)(C)CCS3)nc1 [tazarotene, ethyl 6-[(4,4-dimethylthiochroman-6-yl)ethynyl]nicotinate]
- cessation of treatment due to adverse events ([2]; of patient population): about 5%
- most common adverse effect [2]: mild to moderate burning, pruritus, stinging and erythema
